{"source": "patent US9079901B2", "about": "“Fused heterocyclic compounds as ion channel modulators” (Gilead Sciences, Inc., priority 2010, dated 2015)", "data": [{"target": "wild-type human cardiac sodium channel, hNav1.5 (late sodium current) in HEK293 cells (Homo sapiens, UniProt Q14524)", "sequence (Q14524 whole entry)": "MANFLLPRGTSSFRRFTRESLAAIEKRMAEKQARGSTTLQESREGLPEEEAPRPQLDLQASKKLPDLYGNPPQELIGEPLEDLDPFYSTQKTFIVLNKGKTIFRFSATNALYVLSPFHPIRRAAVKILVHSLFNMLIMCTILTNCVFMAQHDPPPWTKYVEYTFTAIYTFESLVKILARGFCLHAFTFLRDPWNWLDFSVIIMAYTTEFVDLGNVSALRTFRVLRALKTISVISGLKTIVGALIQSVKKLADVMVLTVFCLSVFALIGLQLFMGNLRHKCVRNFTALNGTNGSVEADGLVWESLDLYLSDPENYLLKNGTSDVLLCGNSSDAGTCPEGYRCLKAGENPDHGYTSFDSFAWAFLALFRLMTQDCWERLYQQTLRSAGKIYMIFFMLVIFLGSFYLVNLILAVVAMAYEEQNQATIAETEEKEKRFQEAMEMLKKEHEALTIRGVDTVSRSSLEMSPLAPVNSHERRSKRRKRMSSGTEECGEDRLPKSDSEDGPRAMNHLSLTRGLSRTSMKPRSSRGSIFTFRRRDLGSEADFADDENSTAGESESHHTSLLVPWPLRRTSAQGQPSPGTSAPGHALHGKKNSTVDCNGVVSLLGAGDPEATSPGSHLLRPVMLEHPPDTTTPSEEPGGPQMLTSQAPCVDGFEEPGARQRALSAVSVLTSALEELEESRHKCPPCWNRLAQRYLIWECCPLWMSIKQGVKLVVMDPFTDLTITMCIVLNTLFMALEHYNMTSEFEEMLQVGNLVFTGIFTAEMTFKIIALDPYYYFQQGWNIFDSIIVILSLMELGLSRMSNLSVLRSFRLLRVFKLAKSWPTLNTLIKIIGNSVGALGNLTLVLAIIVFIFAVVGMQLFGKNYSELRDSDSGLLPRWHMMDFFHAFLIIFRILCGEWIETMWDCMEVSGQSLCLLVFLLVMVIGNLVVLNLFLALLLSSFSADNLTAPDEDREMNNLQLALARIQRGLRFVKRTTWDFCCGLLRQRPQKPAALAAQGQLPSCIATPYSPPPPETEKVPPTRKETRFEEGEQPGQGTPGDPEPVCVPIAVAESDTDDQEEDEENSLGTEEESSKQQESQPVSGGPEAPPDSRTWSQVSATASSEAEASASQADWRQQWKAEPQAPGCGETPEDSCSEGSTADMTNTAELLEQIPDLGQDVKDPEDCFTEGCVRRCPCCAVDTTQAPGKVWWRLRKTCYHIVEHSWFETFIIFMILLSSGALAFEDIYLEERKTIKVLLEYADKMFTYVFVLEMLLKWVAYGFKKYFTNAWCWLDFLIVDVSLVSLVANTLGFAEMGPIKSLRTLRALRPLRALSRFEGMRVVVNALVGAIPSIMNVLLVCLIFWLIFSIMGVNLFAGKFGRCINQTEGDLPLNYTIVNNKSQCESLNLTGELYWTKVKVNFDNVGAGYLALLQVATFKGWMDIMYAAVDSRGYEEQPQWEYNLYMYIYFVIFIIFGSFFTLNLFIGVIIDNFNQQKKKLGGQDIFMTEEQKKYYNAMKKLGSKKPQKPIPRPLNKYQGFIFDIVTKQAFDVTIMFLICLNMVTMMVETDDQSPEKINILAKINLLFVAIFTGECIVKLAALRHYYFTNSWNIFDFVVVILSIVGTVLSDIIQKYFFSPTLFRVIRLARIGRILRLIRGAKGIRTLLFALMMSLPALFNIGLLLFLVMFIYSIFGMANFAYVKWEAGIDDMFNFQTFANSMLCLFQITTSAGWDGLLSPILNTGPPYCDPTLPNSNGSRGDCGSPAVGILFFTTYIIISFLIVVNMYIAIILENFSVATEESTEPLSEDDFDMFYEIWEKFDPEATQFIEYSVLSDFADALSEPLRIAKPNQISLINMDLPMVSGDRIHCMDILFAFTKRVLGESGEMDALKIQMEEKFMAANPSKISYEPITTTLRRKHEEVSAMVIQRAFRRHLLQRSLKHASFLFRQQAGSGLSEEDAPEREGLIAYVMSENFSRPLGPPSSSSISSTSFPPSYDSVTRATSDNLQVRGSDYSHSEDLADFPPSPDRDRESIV", "experiment": "Late INa screening assay (automated whole-cell patch clamp, PatchXpress)", "assay_type": "cell-based", "settings": "HEK293, compound at 1 μM; late INa generated with 10 μM Tefluthrin (or 50 nM ATX II); HEK293 hNav1.5; read-out: Late INa 1 μM (percent block of late INa)", "procedure": "(§1) The late sodium current (Late INa) and peak sodium current (Peak INa) assays are performed on an automated electrophysiology platform, PatchXpress 7000A (MDS Analytical Technologies, Sunnyvale, Calif.), which uses the whole cell patch clamp technique to measure currents through the cell membrane of up to 16 cells at a time. The assay uses an HEK293 (human embryonic kidney) cell line heterologously expressing the wild-type human cardiac sodium channel, hNav1.5, purchased from Millipore (Billerica, Mass.). No beta subunits were coexpressed with the Na channel alpha subunit. Cells are maintained with standard tissue culture procedures and stable channel expression is maintained with 400 μg/ml Geneticin in the culture medium. Cells isolated for use on PatchXpress are incubated for 5 minutes in Versene 1× and then for 2 minutes in 0.0125% Trypsin-EDTA (both at 37° C.) to ensure that 80-90% of the cells are single and not part of a cell cluster. Experiments are carried out at 24-27° C.\n(§2) For both the Late INa and Peak INa assays, series resistance compensation is set to 50% and whole-cell compensation is performed automatically. Currents are low-pass filtered at 10 kHz and digitized at 31.25 kHz. Currents through open sodium channels are automatically recorded and stored in the DataXpress2 database (MDS Analytical Technologies, Sunnyvale, Calif.). Analysis is performed using DataXpress2 analysis software and data are compiled in Excel.\n(§3) Compound stocks are routinely made in glass vials to 10 mM in dimethyl sulfoxide (DMSO). In some cases, when compounds are not soluble in DMSO, they are made in 100% ethanol. Stocks are sonicated as necessary. The extracellular solution for screening Late INa is composed of: 140 mM NaCl, 4 mM KCl, 1.8 mM CaCl2, 0.75 mM MgCl2, and 5 mM HEPES with pH adjusted to 7.4 using NaOH. The extracellular solution for screening Peak INa is composed of: 20 mM NaCl, 120 mM N-methyl-D glucamine, 4 mM KCl, 1.8 mM CaCl2, 0.75 mM MgCl2, and 5 mM HEPES with pH adjusted to 7.4 using HCl. The intracellular solution used to perfuse the inside of the cells for both the Late INa and Peak INa assays contains: 120 mM CsF, 20 mM CsCl, 5 mM EGTA, 5 mM HEPES and pH adjusted to 7.4 with CsOH. Compounds are diluted in extracellular solution to 10 μM in glass vials and then transferred to glass well plates before robotic addition to the cells. The 0Na extracellular solution used at the end of each experiment for the Late INa and Peak INa assays to measure baseline current contains: 140 mM N-methyl-D-glucamine; 4 mM KCl; 1.8 mM CaCl2; 0.75 mM MgCl2; 5 mM HEPES and pH was adjusted to 7.4 with HCl.\n(§4) For the Late INa assay, sodium channels are activated every 10 seconds (0.1 Hz) by depolarizing the cell membrane to −20 mV for 250 milliseconds (ms) from a holding potential of −120 mV. In response to a −20 mV voltage step, typical Nav1.5 sodium currents activate rapidly to a peak negative current and then inactivate nearly completely within 3-4 ms.\n(§5) All compounds are tested to determine their activity in blocking the late sodium current. Late INa current is generated by adding 10 μM Tefluthrin (pyrethroid) to the extracellular solution while recording Na currents. For some experiments, 50 nM ATX II (sea anemone toxin), another late INa activator, was used to generate the late component. Both activators generate late components that are large enough that block of the late component by compounds can be measured easily. For the purposes of the screening, late INa is defined as the mean current between 225 ms and 250 ms after stepping to −20 mV to activate Na channels. After establishing the whole cell recording configuration, late INa activators are added to each well 4 times over a 16-17 minute period so that the late component of the Na current reaches a stable value. Compounds are then added (typically at 10 μM), in the presence of late INa activator, with 3 additions over the course of 7 or 8 minutes. […]", "units": {"inhibition at 1 µM": "%"}, "values": [{"smiles": "O=c1n(CC(O)COc2ccccc2)nc2ccc(-c3ccc(OC(F)(F)F)cc3)cn12", "note": "(stereo not shown) [compound 43, 2-(2-hydroxy-3-phenoxypropyl)-6-(4-(trifluoromethoxy)phenyl)-[1,2,4]triazolo[4,3-a]pyridin-3(2H)-one]", "inhibition at 1 µM": 19.3}, {"smiles": "COc1ccccc1OCC(Cn1nc2ccc(-c3ccc(OC(F)(F)F)cc3)cn2c1=O)OC", "note": "(stereo not shown) [compound 23, 2-(2-methoxy-3-(2-methoxyphenoxy)propyl)-6-(4-(trifluoromethoxy)phenyl)-[1,2,4]triazolo[4,3-a]pyridin-3(2H)-one]", "inhibition at 1 µM": 55.1}, {"smiles": "O=c1n(Cc2nc(C3CC3)co2)nc2ccc(-c3ccc(C(F)(F)F)cc3)cn12", "note": "[compound 194, 2-((4-cyclopropyloxazol-2-yl)methyl)-6-(4-(trifluoromethyl)phenyl)-[1,2,4]triazolo[4,3-a]pyridin-3(2H)-one]", "inhibition at 1 µM": 21.6}, {"smiles": "CC(C)n1nc2ccc(-c3ccc(OC(F)(F)F)cc3)cn2c1=O", "note": "[compound 190, 2-isopropyl-6-(4-(trifluoromethoxy)phenyl)-[1,2,4]triazolo[4,3-a]pyridin-3(2H)-one]", "inhibition at 1 µM": 17.6}, {"smiles": "O=c1n(CCc2ncccc2Br)nc2ccc(-c3ccc(OC(F)(F)F)cc3)cn12", "note": "[compound 56, 2-(2-(3-bromopyridin-2-yl)ethyl)-6-(4-(trifluoromethoxy)phenyl)-[1,2,4]triazolo[4,3-a]pyridin-3(2H)-one]", "inhibition at 1 µM": 39.8}, {"smiles": "O=c1n(Cc2cc(-c3ccccn3)on2)nc2ccc(-c3ccc(OC(F)(F)F)cc3)cn12", "note": "[compound 144, 2-((5-(pyridin-2-yl)isoxazol-3-yl)methyl)-6-(4-(trifluoromethoxy)phenyl)-[1,2,4]triazolo[4,3-a]pyridin-3(2H)-one]", "inhibition at 1 µM": 19.2}, {"smiles": "CCc1noc(C(C)n2nc3ccc(-c4ccc(OC(F)(F)F)cc4)cn3c2=O)n1", "note": "(stereo not shown) [compound 14, 2-(1-(3-ethyl-1,2,4-oxadiazol-5-yl)ethyl)-6-(4-(trifluoromethoxy)phenyl)-[1,2,4]triazolo[4,3-a]pyridin-3(2H)-one]", "inhibition at 1 µM": 12}, {"smiles": "COc1cc(F)ccc1OCC(O)Cn1nc2ccc(-c3ccc(OC(F)(F)F)cc3)cn2c1=O", "note": "(stereo not shown) [compound 98, 2-(3-(4-fluoro-2-methoxyphenoxy)-2-hydroxypropyl)-6-(4-(trifluoromethoxy)phenyl)-[1,2,4]triazolo[4,3-a]pyridin-3(2H)-one]", "inhibition at 1 µM": 23.2}, {"smiles": "O=c1n(C2COCC2Oc2ncccn2)nc2ccc(-c3ccc(OC(F)(F)F)cc3)cn12", "note": "(stereo not shown) [compound 109, 2-(4-(pyrimidin-2-yloxy)tetrahydrofuran-3-yl)-6-(4-(trifluoromethoxy)phenyl)-[1,2,4]triazolo[4,3-a]pyridin-3(2H)-one]", "inhibition at 1 µM": 12.9}, {"smiles": "Cc1nc(Cn2nc3ccc(-c4ccc(C(F)(F)F)cc4)cn3c2=O)no1", "note": "[compound 148, 2-((5-methyl-1,2,4-oxadiazol-3-yl)methyl)-6-(4-(trifluoromethyl)phenyl)-[1,2,4]triazolo[4,3-a]pyridin-3(2H)-one]", "inhibition at 1 µM": 11.6}, {"smiles": "O=c1n(CCN2CCC(Oc3ccccc3)C2)nc2ccc(-c3ccc(OC(F)(F)F)cc3)cn12", "note": "(stereo not shown) [compound 39, 2-(2-(3-phenoxypyrrolidin-1-yl)ethyl)-6-(4-(trifluoromethoxy)phenyl)-[1,2,4]triazolo[4,3-a]pyridin-3(2H)-one]", "inhibition at 1 µM": 45.4}, {"smiles": "O=c1n(Cc2ccccn2)nc2ccc(-c3ccc(OC(F)(F)F)cc3)cn12", "note": "[compound 16, 2-(pyridin-2-ylmethyl)-6-(4-(trifluoromethoxy)phenyl)-[1,2,4]triazolo[4,3-a]pyridin-3(2H)-one]", "inhibition at 1 µM": 11.5}, {"smiles": "O=c1n(Cc2noc(C3CC3)n2)nc2ccc(-c3ccc(OC(F)(F)F)cc3)cn12", "note": "[compound 142, 2-((5-cyclopropyl-1,2,4-oxadiazol-3-yl)methyl)-6-(4-(trifluoromethoxy)phenyl)-[1,2,4]triazolo[4,3-a]pyridin-3(2H)-one]", "inhibition at 1 µM": 20}, {"smiles": "O=c1n(CCc2ncccn2)nc2ccc(-c3ccc(OC(F)(F)F)cc3)cn12", "note": "[compound 111, 2-(2-(pyrimidin-2-yl)ethyl)-6-(4-(trifluoromethoxy)phenyl)-[1,2,4]triazolo[4,3-a]pyridin-3(2H)-one]", "inhibition at 1 µM": 18.6}, {"smiles": "O=c1n(Cc2nc(-c3c(Cl)cccc3Cl)no2)nc2ccc(-c3ccc(OC(F)(F)F)cc3)cn12", "note": "[compound 9, 2-((3-(2,6-dichlorophenyl)-1,2,4-oxadiazol-5-yl)methyl)-6-(4-(trifluoromethoxy)phenyl)-[1,2,4]triazolo[4,3-a]pyridin-3(2H)-one]", "inhibition at 1 µM": 29.8}, {"smiles": "Cc1cnc(OCCn2nc3ccc(-c4ccc(OC(F)(F)F)cc4)cn3c2=O)nc1", "note": "[compound 82, 2-(2-(5-methylpyrimidin-2-yloxy)ethyl)-6-(4-(trifluoromethoxy)phenyl)-[1,2,4]triazolo[4,3-a]pyridin-3(2H)-one]", "inhibition at 1 µM": 32.5}, {"smiles": "Cc1noc(C(C)n2nc3ccc(-c4ccc(OC(F)(F)F)cc4)cn3c2=O)n1", "note": "(stereo not shown) [compound 147, 2-(1-(3-methyl-1,2,4-oxadiazol-5-yl)ethyl)-6-(4-(trifluoromethoxy)phenyl)-[1,2,4]triazolo[4,3-a]pyridin-3(2H)-one]", "inhibition at 1 µM": 13.4}, {"smiles": "CCc1noc(Cn2nc3ccc(-c4ccc(OC(F)(F)F)cc4)cn3c2=O)n1", "note": "[compound 166, 2-((3-ethyl-1,2,4-oxadiazol-5-yl)methyl)-6-(4-(trifluoromethoxy)phenyl)-[1,2,4]triazolo[4,3-a]pyridin-3(2H)-one]", "inhibition at 1 µM": 24.4}, {"smiles": "Cc1cccc(C)c1OCCn1nc2ccc(-c3ccc(OC(F)(F)F)cc3)cn2c1=O", "note": "[compound 44, 2-(2-(2,6-dimethylphenoxy)ethyl)-6-(4-(trifluoromethoxy)phenyl)-[1,2,4]triazolo[4,3-a]pyridin-3(2H)-one]", "inhibition at 1 µM": 43.1}, {"smiles": "Cc1cccnc1CCn1nc2ccc(-c3ccc(OC(F)(F)F)cc3)cn2c1=O", "note": "[compound 61, 2-(2-(3-methylpyridin-2-yl)ethyl)-6-(4-(trifluoromethoxy)phenyl)-[1,2,4]triazolo[4,3-a]pyridin-3(2H)-one]", "inhibition at 1 µM": 41.5}, {"smiles": "Cc1nccnc1CCn1nc2ccc(-c3ccc(OC(F)(F)F)cc3)cn2c1=O", "note": "[compound 117, 2-(2-(3-methylpyrazin-2-yl)ethyl)-6-(4-(trifluoromethoxy)phenyl)-[1,2,4]triazolo[4,3-a]pyridin-3(2H)-one]", "inhibition at 1 µM": 18.2}, {"smiles": "O=c1n(Cc2nc(Cc3ccccc3)no2)nc2ccc(-c3ccc(OC(F)(F)F)cc3)cn12", "note": "[compound 29, 2-((3-benzyl-1,2,4-oxadiazol-5-yl)methyl)-6-(4-(trifluoromethoxy)phenyl)-[1,2,4]triazolo[4,3-a]pyridin-3(2H)-one]", "inhibition at 1 µM": 27.2}, {"smiles": "O=c1n(CCc2ccc(F)cc2F)nc2ccc(-c3ccc(OC(F)(F)F)cc3)cn12", "note": "[compound 78, 2-(2,4-difluorophenethyl)-6-(4-(trifluoromethoxy)phenyl)-[1,2,4]triazolo[4,3-a]pyridin-3(2H)-one]", "inhibition at 1 µM": 36.7}, {"smiles": "CCOc1ccccc1OCC(O)Cn1nc2ccc(-c3ccc(OC(F)(F)F)cc3)cn2c1=O", "note": "(stereo not shown) [compound 99, 2-(3-(2-ethoxyphenoxy)-2-hydroxypropyl)-6-(4-(trifluoromethoxy)phenyl)-[1,2,4]triazolo[4,3-a]pyridin-3(2H)-one]", "inhibition at 1 µM": 36.5}]}, {"target": "wild-type human cardiac sodium channel, hNav1.5 (late sodium current) in HEK293 cells (Homo sapiens, UniProt Q14524)", "experiment": "Late INa screening assay (automated whole-cell patch clamp, PatchXpress)", "assay_type": "cell-based", "settings": "compound at 1 μM; late INa generated with 10 μM Tefluthrin (or 50 nM ATX II); HEK293 hNav1.5", "procedure": "as §1, §2, §3, §4, §5", "units": {"Late INa 1 μM (percent block of late INa)": "%"}, "values": [{"smiles": "N#CCOc1ccnc(OCCn2nc3ccc(-c4ccc(OC(F)(F)F)cc4)cn3c2=O)n1", "note": "[compound 160]", "Late INa 1 μM (percent block of late INa)": 24.6907}]}]}
